Experimental data taken from BindingDB's records for doi:10.1021/acsmedchemlett.6b00306 (The University of Queensland, 2016).
pIC50: −log10 of the molar value.

Target: T1, Proteinase-activated receptor 2 (Homo sapiens, UniProt P55085)
T1 sequence (P55085 whole entry): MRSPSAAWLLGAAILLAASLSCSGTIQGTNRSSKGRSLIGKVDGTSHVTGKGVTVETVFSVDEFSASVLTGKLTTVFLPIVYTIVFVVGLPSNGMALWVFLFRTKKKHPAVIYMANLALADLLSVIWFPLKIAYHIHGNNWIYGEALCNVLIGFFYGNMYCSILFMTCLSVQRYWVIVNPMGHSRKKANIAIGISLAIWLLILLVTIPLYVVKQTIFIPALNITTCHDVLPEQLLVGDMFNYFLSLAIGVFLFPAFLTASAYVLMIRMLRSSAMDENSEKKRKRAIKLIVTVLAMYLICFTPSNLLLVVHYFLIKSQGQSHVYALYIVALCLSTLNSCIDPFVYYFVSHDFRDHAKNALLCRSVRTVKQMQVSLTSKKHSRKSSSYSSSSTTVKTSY
Experiment: Antagonist activity at PAR2 in human HT-29 cells assessed as inhibition of 2f-LIGRLO-NH2-stimulated intracellular calcium release preincubated for 30 mins followed by 2f-LIGRLO-NH2 stimulation measured for 60 sec by Fluo-3 AM dye based FLIPR assay

pIC50: 5.10
Compound: CC[C@H](C)[C@H](NC(=O)[C@H](CC1CCCCC1)NC(=O)c1ccno1)C(=O)N1CCCC[C@H]1C(=O)NC(C)(C)C
